# Marks after values point to notes of the source that are not given here.
# How the values were obtained:
# mGluR5 = mGluR5 (Homo sapiens, UniProt P41594); conditions: shared allosteric modulatory site; cited from earlier work
# [1] = tested on: PTZ-induced seizures in WT, Fmr-1 KO, Tg2576 and FRAXAD mice; test: PTZ seizure induction after MPEP pre-treatment; format: in vivo, mouse; conditions: 30 mg/kg MPEP I.P. 30 min prior to PTZ
# Description: To assess the impact of mGluR5 inhibition on seizure phenotypes, Frm-1 KO, Tg2576, and FRAXAD mice were treated with mGluR5 antagonist, MPEP. Tg2576, FRAXAD and littermate controls were treated with 30 mg/kg MPEP (via I.P. injections) 30 min prior to seizure induction with PTZ. The experimental results presented in Table 2 support MPEP's effect as an anti-convulsant in both WT and Fmr-1 KO mice. WT male mice reach a grade 3 seizure, fully developed minimal seizure with clonus of the head muscles and forelimbs, at a rate of 50% in response to 50 mg/kg PTZ, but only 20% achieve a grade 3 seizure with MPEP treatment 30 min prior to PTZ (statistically significant, χ^2 test, p<0.0005). Likewise, there was a reduction from 11% to 0%, 46% to 25%, and 40% to 33% in WT females, Fmr-1 KO males and Fmr-1 KO females, respectively when tested using the seizure induction assay.
# [2] = tested on: audiogenic seizures in Fmr-1 KO mice; conditions: intraperitoneal injections; cited from earlier work
# [3] = tested on: audiogenic seizures in mice; test: Audiogenic seizure (AGS) testing; format: in vivo, mouse; conditions: MPEP 30 mg/kg I.P. 30 min prior to AGS testing
# Description: Audiogenic Seizure Testing, Data Analyses and mGluR5 Blockade: All mouse strains were tested at postnatal day 21, the peak of AGS sensitivity. The experimental apparatus consisted of a clear, Plexiglas box (13″L×8″W×7″H) with the sound source located inside the box (LOUD KEY™ jogger's alarm). Mice were weighed and then placed individually into the center of the chamber and exposed to a siren that generated noise at 118 dB for 5 min. Loud, acoustic stimulation causes wild running (WR) behavior within 20-30 sec followed by erratic leaping, clonic convulsions and tonic hind limb extension by 40-50 sec followed by respiratory arrest and death (Chen, et al., 2001, Neuroscience 103, 1043-1050). The animals were scored for the latency time of wild running (WR), AGS and respiratory arrest (death). […] MPEP was a kind gift from FRAXA Research Foundation (Newburyport, Mass.) and was dissolved at 1 mg/mL in DPBS before I.P. injection at 30 mg/kg body weight 30 min prior to AGS testing.
# Tg2576 mice over-expressed hAPPSwe and hAβ. FRAXAD were a cross between fmr-1^−/− (Fragile X mouse model) and Tg2576 (AD mouse model) and generated 23% more brain hAβ1-40 than Tg2576 (Westmark et al., 2008, Int J Clin Exp Pathol 1: 157-168). […] It was determined whether hAPPSwe/hAβ over-expression in an fmr-1 null background (FRAXAD mice) increased AGS. C57BL/6 fmr-1^−/− mice were sensitive to AGS from 15-47 days with a peak at 21 days (Yan et al., 2005, Neuropharmacology 49: 1053-1066). AGS in WT, fmr-1^−/−, Tg2576 and FRAXAD mice was examined at 21 days of age. Mice were transferred to a Plexiglas box (13″L×8″W×7″H) shortly after weaning and exposed to high pitch siren (118 dB) from a personal body alarm (LOUD KEY™).
# A common denominator between Fragile X Syndrome (FXS), Downs Syndrome (DS), and Alzheimer's Disease (AD) is the over-expression of amyloid precursor protein (APP) and/or beta-amyloid (Aβ). […] Additionally, methods that decreased APP/Aβ levels were expected to reduce AGS. Accordingly, AGS rates were examined in AD, FXS and DS mouse models. AGS rates for FRAXAD, Tg2576, and fmr-1^−/−, Ts65Dn were described above in Example 6. Here, the ability of 2-methyl-6-(phenylethynyl)pyridine hydrochloride (MPEP) to attenuate AGS was assessed. Tg2576 and FRAXAD mice were treated with MPEP for 30 min prior to AGS stimulation to assess the effect of mGluR5 blockade on seizure propensity in AD mouse models.
# Sequence of mGluR5 (P41594 21-1212): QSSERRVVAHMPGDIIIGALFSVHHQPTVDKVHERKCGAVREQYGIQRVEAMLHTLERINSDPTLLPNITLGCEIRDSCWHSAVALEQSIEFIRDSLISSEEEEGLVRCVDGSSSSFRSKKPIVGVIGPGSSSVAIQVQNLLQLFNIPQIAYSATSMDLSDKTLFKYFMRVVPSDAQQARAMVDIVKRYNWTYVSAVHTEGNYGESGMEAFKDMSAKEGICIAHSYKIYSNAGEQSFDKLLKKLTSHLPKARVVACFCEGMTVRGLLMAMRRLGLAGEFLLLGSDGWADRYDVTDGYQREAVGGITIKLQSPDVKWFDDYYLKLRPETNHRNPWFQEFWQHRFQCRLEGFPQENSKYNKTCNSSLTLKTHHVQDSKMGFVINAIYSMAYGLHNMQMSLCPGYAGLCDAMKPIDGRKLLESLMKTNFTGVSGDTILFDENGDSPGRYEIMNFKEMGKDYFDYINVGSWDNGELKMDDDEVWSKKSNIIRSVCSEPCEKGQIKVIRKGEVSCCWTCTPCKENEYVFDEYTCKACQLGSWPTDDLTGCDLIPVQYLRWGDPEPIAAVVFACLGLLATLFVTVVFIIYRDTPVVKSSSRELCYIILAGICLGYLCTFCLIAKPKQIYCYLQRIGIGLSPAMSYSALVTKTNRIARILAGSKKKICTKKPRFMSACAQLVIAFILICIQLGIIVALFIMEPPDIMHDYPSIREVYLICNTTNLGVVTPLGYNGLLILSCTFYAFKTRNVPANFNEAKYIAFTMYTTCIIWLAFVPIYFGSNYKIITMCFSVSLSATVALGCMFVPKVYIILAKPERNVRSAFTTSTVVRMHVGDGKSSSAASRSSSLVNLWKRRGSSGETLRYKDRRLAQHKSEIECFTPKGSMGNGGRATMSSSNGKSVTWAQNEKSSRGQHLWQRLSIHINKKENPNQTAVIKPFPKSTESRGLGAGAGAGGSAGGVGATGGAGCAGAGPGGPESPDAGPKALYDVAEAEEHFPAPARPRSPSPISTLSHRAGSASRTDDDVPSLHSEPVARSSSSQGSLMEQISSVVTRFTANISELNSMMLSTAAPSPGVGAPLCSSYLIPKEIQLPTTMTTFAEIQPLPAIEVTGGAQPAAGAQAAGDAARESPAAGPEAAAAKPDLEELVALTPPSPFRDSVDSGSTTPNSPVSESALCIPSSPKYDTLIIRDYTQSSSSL
smiles,measurement,setting,value
"Cc1cccc(C#Cc2ccccc2)n1 [MPEP, 2-methyl-6-(phenylethynyl)pyridine]",mGluR5 antagonist character,mGluR5,potent and highly selective noncompetitive antagonists
same,MPEP + PTZ % death,[1]; FMR-1 KO female,0%
same,MPEP + PTZ % grade 3,[1]; FMR-1 KO female,33%
same,MPEP + PTZ % death,[1]; FMR-1 KO male,0%
same,MPEP + PTZ % grade 3,"[1]; FMR-1 KO male, 30 mg/kg",25%
same,MPEP + PTZ % death,[1]; FRAXAD female,40* %
same,MPEP + PTZ % grade 3,[1]; FRAXAD female,100%
same,MPEP + PTZ % death,[1]; FRAXAD male,60* %
same,MPEP + PTZ % grade 3,[1]; FRAXAD male,80%
same,MPEP + PTZ % death,[1]; Tg2576 female,50* %
same,MPEP + PTZ % grade 3,[1]; Tg2576 female,75%
same,MPEP + PTZ % death,[1]; Tg2576 male,75%
same,MPEP + PTZ % grade 3,[1]; Tg2576 male,100%
same,MPEP + PTZ % death,[1]; WT female,0%
same,MPEP + PTZ % grade 3,"[1]; WT female, 30 mg/kg",0%
same,MPEP + PTZ % death,[1]; WT male,0%
same,MPEP + PTZ % grade 3,"[1]; WT male, 30 mg/kg",20%
same,effect on audiogenic seizures,[2],reduce
same,% Death,[3]; FRAXAD mice,7%
same,% WR,[3]; FRAXAD mice,60%
same,% Death,[3]; Fmr-1 KO mice,0%
same,% WR,[3]; Fmr-1 KO mice,14%
same,% Death,[3]; Tg2576 mice,0%
same,% WR,[3]; Tg2576 mice,0%
same,% AGS,[3]; WT mice,0%
same,% Death,[3]; WT mice,0%
same,% WR,[3]; WT mice,0%
